Where “and” joins values, the source holds several entries; their conditions need not be identical. Equal values may be shown once.
Columns and labels:
Type in all cases: cell-based, human
[1] = system: PBMC from allergic donors; assay: IL-5 ELISPOT with extract-stimulated short-term lines; conditions: positive donor/peptide response
Protocol: (§1) Spots were counted by computer-assisted image analysis (Zeiss, KS-ELISPOT reader, Munich, Germany).
(§2) Each assay was performed in triplicate. The level of statistical significance was determined with a Student's t-test using the mean of triplicate values of the response against relevant pools or individual peptides versus the response against the DMSO control.

[2] = system: PBMC from allergic donors; assay: IFN-γ ELISPOT with extract-stimulated short-term lines; conditions: positive donor/peptide response
Protocol: as §1, §2

[3] = system: PBMC from allergic donors; assay: Dual ELISPOT, total IL-5 and IFN-γ response (SFC); conditions: sum of IFNg and IL-5
Protocol: as §1, §2

Row | Molecule | Response (SFC/10^6) IL-5 ([1]; one donor per table line) | Response (SFC/10^6) IFNg ([2]; one donor per table line) | Response (SFC/10^6) IL-5 ([1]; each table line is one donor) | Response (SFC/10^6) IFNg ([2]; each table line is one donor) | Response (SFC/10^6) Total ([3]; each table line is one donor) | Response (SFC/10^6) Total ([3]; one donor per table line)
1 | 3324.0001 (AVGLLKAVESYLLAH) | 597 SFC/10^6 | 597 SFC/10^6 | – | – | – | –
2 | 3324.0099 (MKNIFMLTLFILIIT) | – | – | 57 SFC/10^6 | 77 SFC/10^6 | 57 SFC/10^6 and 77 SFC/10^6 | –
3 | 3324.0102 (DKWLDAKSTWYGKPT) | 147 SFC/10^6 | 447 SFC/10^6 and 233 SFC/10^6 and 123 SFC/10^6 | – | – | – | 593 SFC/10^6 and 233 SFC/10^6 and 123 SFC/10^6
4 | 3324.0382 (LYPDVKYTTVEEYLQ) | 67 SFC/10^6 | 67 SFC/10^6 | – | – | – | –
5 | 3324.0613 (MNIKLQMPLYVAGYK) | 652 SFC/10^6 | 120 SFC/10^6 | – | – | – | 652 SFC/10^6 and 120 SFC/10^6
6 | 3324.0660 (IPTAFKIGTTYTPEE) | 170 SFC/10^6 | 110 SFC/10^6 | – | – | – | 280 SFC/10^6
7 | 3324.0834 (KAFNKSYATFEDEEA) | 703 SFC/10^6 | 1563 SFC/10^6 | – | – | – | 2267 SFC/10^6
8 | 3324.0836 (EIDLRQMRTVTPIRM) | 613 SFC/10^6 | 120 SFC/10^6 | – | – | – | 733 SFC/10^6
9 | 3324.0842 (GGAINHLSDLSLDEF) | 603 SFC/10^6 | 170 SFC/10^6 | – | – | – | 773 SFC/10^6
10 | 3324.1104 (LGFFKKEALPQCAQV) | 573 SFC/10^6 | 53 SFC/10^6 | – | – | – | 627 SFC/10^6
11 | 3324.1166 (HTVALFLAVALVAGP) | – | – | – | 53 SFC/10^6 | 53 SFC/10^6 | –
12 | 3324.1168 (NAGFKAAVAAAAVVP) | – | – | 873 SFC/10^6 and 977 SFC/10^6 and 248 SFC/10^6 | 850 SFC/10^6 | 1723 SFC/10^6 and 977 SFC/10^6 and 248 SFC/10^6 | –
13 | 3324.1169 (DAALKLAYEAAQGAT) | – | – | – | 120 SFC/10^6 | 120 SFC/10^6 | –
14 | 3324.1171 (KTFVETFGTATNKAF) | – | – | – | 73 SFC/10^6 | 73 SFC/10^6 | –
15 | 3324.1177 (AAVKQAYAAKQATAP) | – | – | – | 43 SFC/10^6 | 43 SFC/10^6 | –
16 | 3324.1180 (PEAKYDAYVATLTEA) | – | – | – | 227 SFC/10^6 | 227 SFC/10^6 | –
17 | 3324.1443 (DAAYRVAYEAAEGST) | – | – | – | 70 SFC/10^6 | 70 SFC/10^6 | –

Row | Molecule | Response (SFC/10^6) IL-5 ([1]; one donor per table line) | Response (SFC/10^6) IFNg ([2]; one donor per table line) | Response (SFC/10^6) IL-5 ([1]; each table line is one donor) | Response (SFC/10^6) IFNg ([2]; each table line is one donor) | Response (SFC/10^6) Total ([3]; each table line is one donor) | Response (SFC/10^6) Total ([3]; one donor per table line)
18 | 3324.1586 (KAVEAYLVAHPDLYK) | 83 SFC/10^6 and 53 SFC/10^6 and 143 SFC/10^6 and 443 SFC/10^6 | 110 SFC/10^6 | – | – | – | 83 SFC/10^6 and 53 SFC/10^6 and 143 SFC/10^6 and 553 SFC/10^6
19 | 3324.1592 (LGRAWFEAARVVFSY) | – | – | 1430 SFC/10^6 | 120 SFC/10^6 | 1550 SFC/10^6 | –
20 | 3324.1625 (GFYLQWAVHSFRITN) | – | – | 143 SFC/10^6 | 193 SFC/10^6 | 337 SFC/10^6 | –
21 | 3324.1636 (FFSANAAALASRKSS) | – | – | – | 93 SFC/10^6 | 93 SFC/10^6 | –
22 | 3324.1647 (SLATLQSLESIVGKD) | – | – | – | 228 SFC/10^6 | 228 SFC/10^6 | –
23 | 3324.1653 (FDLYFSMARGNASLP) | – | – | – | 343 SFC/10^6 | 343 SFC/10^6 | –
24 | 3337.0006 (KQEDDGLCYEGTNCG) | – | – | – | 123 SFC/10^6 | 123 SFC/10^6 | –
25 | 3337.0007 (GKYCVCYDSKAICNK) | – | – | – | 47 SFC/10^6 | 47 SFC/10^6 | –
26 | 3337.0008 (WLDAKSTWYGKPTGA) | 57 SFC/10^6 | 140 SFC/10^6 and 283 SFC/10^6 and 163 SFC/10^6 | – | – | – | 140 SFC/10^6 and 57 SFC/10^6 and 283 SFC/10^6 and 163 SFC/10^6
27 | 3337.0028 (EPIAPYHFDLSGHAF) | 97 SFC/10^6 | 157 SFC/10^6 | – | – | – | 253 SFC/10^6
28 | 3337.0039 (SWGAIWRIDTPDKLT) | – | – | – | 155 SFC/10^6 | 155 SFC/10^6 | –
29 | CC[C@H](C)[C@H](NC(=O)[C@H](Cc1ccccc1)NC(=O)[C@H](C)NC(=O)[C@H](CCCCN)NC(=O)[C@H](Cc1ccccc1)NC(=O)[C@H](CC(C)C)NC(=O)[C@H](CCCNC(=N)N)NC(=O)[C@H](C)NC(=O)[C@H](C)NC(=O)[C@@H]1CCCN1C(=O)[C@@H](NC(=O)[C@@H](NC(=O)[C@H](CO)NC(=O)[C@@H]1CCCN1)C(C)C)[C@@H](C)CC)C(=O)N[C@@H](CC(C)C)C(=O)O [3324.0004] | – | 683 SFC/10^6 | – | – | – | 683 SFC/10^6
30 | CC[C@H](C)[C@H](NC(=O)[C@H](CO)NC(=O)CNC(=O)CN)C(=O)N[C@@H](CC(C)C)C(=O)N[C@@H](CCCCN)C(=O)N[C@H](C(=O)N[C@@H](CO)C(=O)N[C@@H](CC(N)=O)C(=O)N[C@@H](CCCCN)C(=O)N[C@@H](Cc1ccccc1)C(=O)N[C@@H](Cc1c[nH]cn1)C(=O)N[C@H](C(=O)N[C@@H](CCCCN)C(=O)NCC(=O)O)[C@@H](C)O)[C@@H](C)CC [3324.0007] | – | 887 SFC/10^6 and 357 SFC/10^6 | – | – | – | 887 SFC/10^6 and 357 SFC/10^6
31 | CC[C@H](C)[C@H](N)C(=O)N[C@H](C(=O)N[C@@H](Cc1ccc(O)cc1)C(=O)N[C@H](C(=O)N[C@@H](CCCCN)C(=O)N1CCC[C@H]1C(=O)N[C@@H](C)C(=O)N[C@@H](CCCCN)C(=O)N[C@@H](CC(N)=O)C(=O)N[C@H](C(=O)N[C@@H](Cc1ccc(O)cc1)C(=O)N[C@@H](CO)C(=O)N[C@@H](Cc1ccccc1)C(=O)N[C@@H](CC(N)=O)C(=O)N[C@@H](CCC(=O)O)C(=O)O)[C@@H](C)CC)[C@@H](C)CC)C(C)C [3324.0386] | – | 227 SFC/10^6 and 487 SFC/10^6 | – | – | – | 227 SFC/10^6 and 487 SFC/10^6
32 | CC[C@H](C)[C@H](NC(=O)[C@H](CC(N)=O)NC(=O)[C@H](CCCCN)NC(=O)[C@H](C)NC(=O)[C@@H]1CCCN1C(=O)[C@H](CCCCN)NC(=O)[C@@H](NC(=O)[C@H](Cc1ccc(O)cc1)NC(=O)[C@@H](NC(=O)[C@@H](NC(=O)[C@H](CCCCN)NC(=O)[C@H](CC(N)=O)NC(=O)[C@H](CC(C)C)NC(=O)[C@@H](NC(=O)[C@@H](N)CCCNC(=N)N)[C@@H](C)O)[C@@H](C)CC)C(C)C)[C@@H](C)CC)C(=O)O [3324.0387] | – | 580 SFC/10^6 and 140 SFC/10^6 | – | – | – | 580 SFC/10^6 and 140 SFC/10^6
33 | CC[C@H](C)[C@H](NC(=O)[C@H](CC(N)=O)NC(=O)[C@H](CCSC)NC(=O)[C@H](CC(N)=O)NC(=O)[C@H](CCC(N)=O)NC(=O)[C@H](CO)NC(=O)[C@H](Cc1ccccc1)NC(=O)[C@@H](NC(=O)[C@@H](NC(=O)[C@H](Cc1c[nH]c2ccccc12)NC(=O)[C@H](CC(C)C)NC(=O)[C@H](C)NC(=O)[C@@H](N)CCCCN)[C@@H](C)CC)[C@@H](C)CC)C(=O)N[C@@H](CCCCN)C(=O)N[C@@H](CC(C)C)C(=O)O [3324.0604] | – | 390 SFC/10^6 | – | – | – | 390 SFC/10^6

Reference: patent US10918713B2, “Epitopes from allergen proteins and methods and uses for immune response modulation” (LA JOLLA INSTITUTE FOR ALLERGY AND IMMUNOLOGY, priority 2012, dated 2021)
